Patent US9512090B2, “Tetrazolinone compound and use thereof” (Sumitomo Chemical Company, Limited, priority 2013, dated 2016)

Assays:
[1] = system: cucumber powdery mildew fungus (Sphaerotheca fuliginea); test: Test Example 6 and Comparative Test Example: cucumber powdery mildew control by foliar spray; type: in vivo; conditions: 500 ppm spray on cucumber (SAGAMI HANJIRO); 8 days after inoculation
[2] = system: common house mosquito (Culex pipiens pallens); test: Test Example 12: common house mosquito larvae mortality in treated water; type: in vivo; conditions: active ingredient 3.5 ppm in water; last instar larvae; after 8 days
Method: A water dilution containing a surfactant prepared by adjusting so as to contain a predetermined concentration (500 ppm) of any one compound of the present compounds 20, 29, and 79 was used as a test chemical solution.
The above test chemical solution (0.7 mL) was added to 100 mL of deionized water to adjust the concentration of an active ingredient to 3.5 ppm. Twenty (20) heads of last instar larvae of common house mosquito (Culex pipiens pallens) were released in the solution and the number of dead insects was counted after 8 days.
Mortality was determined by the following equation. Mortality (%)=(number of dead insects/number of test insects)×100

Compound	area of lesion spots on the treated plant relative to that on an untreated plant [1]	mortality [2]
Cc1ccc(OCc2ccccc2-n2nnn(C)c2=O)cc1 [1-{2-(4-methylphenoxymethyl)phenyl}-4-methyl-1,4-dihydrotetrazol-5-one]	≥ 70%	
COc1ccccc1-c1ccc(OCc2c(OC)cccc2-n2nnn(C)c2=O)c(C)c1 [compound 20]		100%
Cc1cc(OCc2c(C)cccc2-n2nnn(C)c2=O)ccc1-c1ccccc1 [compound 29]		100%
CCN(c1ccccc1)c1ccc(OCc2c(C)cccc2-n2nnn(C)c2=O)c(C)c1 [compound 79]		100%
